Patent publication US20240335465A1 (University of Virginia Patent Foundation, priority 2021, published 2024)

Assays:
DDR signaling [1] = test: DDR signaling immunoblotting in THP1 cells; conditions: for DDR induction in cells lacking STING or TBK1: STING−/− or shTBK1 cells
DDR signaling [2] = test: DDR signaling immunoblotting in primary mouse embryonic fibroblasts; conditions: for DDR signaling (γH2AX): cGAS−/− and cGAS GS198AA primary MEFs vs WT
NAD^+ = test: NAD+ quantification; type: cell-based, human; conditions: THP1, 2 mM, 4 mM and 8 mM NAM, 18 hours
HEK293-TrLR cells = test: HDR and NHEJ assay using Traffic Light Reporter; type: cell-based, human
Procedure: TrLR-integrated HEK293 cells were selected through exposure to 5 μg/ml puromycin for 2 weeks. […] 8 hours following this procedure, cells were transfected with pCVL SFFV d14GFP Donor (Addgene Cat #31475), pCBASceI (Addgene Cat #26477)), or Donor+SceI using Lipofectamine 3000. 72 hours post-transfection, cells were trypsinized, collected, and analyzed with an Attune NxT flow cytometer (Thermofisher). To quantify the DNA repair events, ˜10,000-30,000 cells were acquired on an Attune NxT cytometer and analyzed using FCS Express software. Single cell events were determined by gating on the area against the width of the forward scatter pulse signal. Debris removal was performed by excluding events with very low forward and side scatter. For determining % of GFP and mCherry positive cells we established positive and negative populations using mock transfections as negative controls and GFP or mCherry transfected samples as Fluorescence Minus One controls.

PARP = PARP activity assay; type: cell-based, human
Procedure: Post cGAMP treatment, cells were collected by centrifugation and washed with cold PBS once and resuspended in Cell Extraction Buffer. PARP activity was measured using the Chemiluminescent Assay Kit (R&D, Catalog Number: 4685-096-K) following manufacturer's protocol.

PARylation = test: PolyADP-ribosylation (PARylation) immunoblot; type: cell-based, human; conditions: THP1, 2 mM NAM 18 hours, 250 μM H2O2 10 minutes
Text: Cells were collected by centrifugation, washed once with ice-cold PBS, lysed in RIPA buffer and analyzed by western blot to detect PARylation using pADPr Antibody (Santa Cruz sc-56198).

cell cycle progression = test: Cell cycle analysis by flow cytometry (BrdU, propidium iodide); type: cell-based, human
Procedure: Cells were washed with cold PBS and resuspended in 0.5 ml PBS to achieve a single cell suspension. Cells were fixed in a tube containing 4.5 ml 70% ethanol kept at 4° C. overnight. Cells were collected by centrifugation at 500 g for 5 minutes and washed twice with PBS. Washed cells were then stained with 1 ml of freshly prepared staining solution containing propidium iodide (10 μg/ml), DNase-free RNaseA (100 μg/ml), and 0.1% (v/v) Triton X-100 before being subjected to flow cytometry measurement. To determine percentage of cell population in various cell cycle stage, ˜10,000-30,000 cells were acquired on an Attune NxT cytometer and analyzed using FCS Express software. Cell cycle analysis was performed on propidium iodide stained cells and single cell events were determined by gating on the area against the width of the propidium iodide pulse signal. DNA cell cycle modeling and fit was performed using the Multicycle AV plugin (Phoenix Flow Systems).
Cells were fixed and stained to detect BrdU incorporation by flow cytometry following the manufacturer's protocol (FITC BrdU Flow Kit, BD Biosciences, Cat #559619).

ATM = ATM (Homo sapiens, UniProt Q13315); conditions: recombinant ATM and TBK1; 25 μM ATM inhibitor, 10 μM TBK1 inhibitor
ATM, sequence (Q13315 whole entry): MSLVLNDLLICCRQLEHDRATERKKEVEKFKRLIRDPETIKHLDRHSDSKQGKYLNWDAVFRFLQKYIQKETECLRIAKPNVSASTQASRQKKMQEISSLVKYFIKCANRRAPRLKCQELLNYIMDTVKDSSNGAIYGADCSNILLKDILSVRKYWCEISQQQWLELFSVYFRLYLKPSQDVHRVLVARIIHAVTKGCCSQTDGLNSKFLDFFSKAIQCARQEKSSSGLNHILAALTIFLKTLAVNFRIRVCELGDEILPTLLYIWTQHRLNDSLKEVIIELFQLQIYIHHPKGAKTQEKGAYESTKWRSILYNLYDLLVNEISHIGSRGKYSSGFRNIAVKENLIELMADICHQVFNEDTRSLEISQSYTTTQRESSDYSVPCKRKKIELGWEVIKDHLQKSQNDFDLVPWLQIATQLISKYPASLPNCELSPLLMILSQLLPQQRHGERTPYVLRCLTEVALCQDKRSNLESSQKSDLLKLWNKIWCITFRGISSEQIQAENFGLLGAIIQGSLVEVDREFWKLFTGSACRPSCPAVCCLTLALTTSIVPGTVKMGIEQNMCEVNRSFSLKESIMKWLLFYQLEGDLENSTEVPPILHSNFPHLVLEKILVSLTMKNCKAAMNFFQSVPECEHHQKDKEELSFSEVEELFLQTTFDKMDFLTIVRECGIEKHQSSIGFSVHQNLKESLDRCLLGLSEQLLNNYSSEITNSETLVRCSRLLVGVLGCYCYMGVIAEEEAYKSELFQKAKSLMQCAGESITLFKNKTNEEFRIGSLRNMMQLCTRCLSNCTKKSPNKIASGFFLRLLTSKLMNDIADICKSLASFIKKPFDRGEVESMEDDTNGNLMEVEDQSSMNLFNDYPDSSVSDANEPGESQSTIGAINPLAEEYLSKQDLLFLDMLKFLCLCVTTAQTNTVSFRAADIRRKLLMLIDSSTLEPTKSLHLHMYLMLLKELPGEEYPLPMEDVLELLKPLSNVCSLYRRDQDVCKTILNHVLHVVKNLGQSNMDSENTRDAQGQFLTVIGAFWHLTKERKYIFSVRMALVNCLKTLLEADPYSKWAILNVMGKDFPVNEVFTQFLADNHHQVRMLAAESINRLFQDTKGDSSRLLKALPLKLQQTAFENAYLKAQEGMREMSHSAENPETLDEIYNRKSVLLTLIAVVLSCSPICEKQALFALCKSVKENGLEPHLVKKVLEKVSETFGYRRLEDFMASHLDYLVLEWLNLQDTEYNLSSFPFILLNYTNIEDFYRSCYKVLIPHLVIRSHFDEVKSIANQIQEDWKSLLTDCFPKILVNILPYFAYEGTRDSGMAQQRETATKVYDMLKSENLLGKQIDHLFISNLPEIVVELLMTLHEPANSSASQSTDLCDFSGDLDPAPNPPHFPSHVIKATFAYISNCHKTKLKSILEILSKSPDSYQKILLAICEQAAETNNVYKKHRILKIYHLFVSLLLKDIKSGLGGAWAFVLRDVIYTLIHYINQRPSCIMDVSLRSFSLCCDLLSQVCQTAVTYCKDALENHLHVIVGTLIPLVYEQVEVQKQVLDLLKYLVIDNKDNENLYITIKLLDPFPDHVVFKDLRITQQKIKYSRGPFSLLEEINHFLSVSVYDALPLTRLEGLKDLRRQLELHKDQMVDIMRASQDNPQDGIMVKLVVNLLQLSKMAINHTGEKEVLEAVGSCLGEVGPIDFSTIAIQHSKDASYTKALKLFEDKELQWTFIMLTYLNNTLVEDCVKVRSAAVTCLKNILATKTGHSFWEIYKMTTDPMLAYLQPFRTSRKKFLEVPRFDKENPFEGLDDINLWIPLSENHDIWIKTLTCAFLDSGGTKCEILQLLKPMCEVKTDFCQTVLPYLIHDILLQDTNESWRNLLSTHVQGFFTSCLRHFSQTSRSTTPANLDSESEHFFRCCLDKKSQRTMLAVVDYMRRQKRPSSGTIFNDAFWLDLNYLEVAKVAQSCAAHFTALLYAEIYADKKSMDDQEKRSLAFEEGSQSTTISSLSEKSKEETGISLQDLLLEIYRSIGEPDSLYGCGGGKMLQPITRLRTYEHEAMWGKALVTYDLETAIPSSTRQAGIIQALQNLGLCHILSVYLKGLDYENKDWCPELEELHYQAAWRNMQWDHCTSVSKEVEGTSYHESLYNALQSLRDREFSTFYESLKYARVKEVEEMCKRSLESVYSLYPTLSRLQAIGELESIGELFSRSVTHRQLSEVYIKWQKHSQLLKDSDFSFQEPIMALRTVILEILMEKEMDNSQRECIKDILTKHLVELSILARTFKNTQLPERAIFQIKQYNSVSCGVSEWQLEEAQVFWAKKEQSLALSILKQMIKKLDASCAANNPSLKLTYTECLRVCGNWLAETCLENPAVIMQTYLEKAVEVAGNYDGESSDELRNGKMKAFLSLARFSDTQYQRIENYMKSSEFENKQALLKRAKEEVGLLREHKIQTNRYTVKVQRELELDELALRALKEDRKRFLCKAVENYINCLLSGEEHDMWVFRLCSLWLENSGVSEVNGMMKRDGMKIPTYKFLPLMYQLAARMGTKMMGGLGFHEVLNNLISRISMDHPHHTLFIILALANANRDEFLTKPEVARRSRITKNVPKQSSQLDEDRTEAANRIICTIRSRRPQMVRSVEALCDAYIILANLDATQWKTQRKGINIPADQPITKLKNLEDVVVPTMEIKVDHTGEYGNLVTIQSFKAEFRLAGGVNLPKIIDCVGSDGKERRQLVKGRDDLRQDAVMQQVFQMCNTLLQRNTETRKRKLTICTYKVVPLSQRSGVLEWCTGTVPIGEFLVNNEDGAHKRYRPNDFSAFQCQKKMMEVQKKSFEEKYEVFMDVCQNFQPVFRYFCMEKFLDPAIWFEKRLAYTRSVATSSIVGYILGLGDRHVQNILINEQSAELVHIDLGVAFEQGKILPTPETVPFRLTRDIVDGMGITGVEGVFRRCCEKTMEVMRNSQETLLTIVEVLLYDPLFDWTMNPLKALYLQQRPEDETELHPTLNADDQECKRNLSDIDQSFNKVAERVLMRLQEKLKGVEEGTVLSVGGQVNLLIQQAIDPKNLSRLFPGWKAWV
Procedure: 2× laemmli buffer was added and the mixture which was then incubated at 98° C. for 10 mins. The protein mixtures were separated on a 7.5% SDS/PAGE gel and immunoblotted for anti phospho-ATM (Ser1981) antibody to assess phosphorylation status if ATM. To test the effect of inhibitors on recombinant TBK1 mediated ATM phosphorylation, 25 μM ATM inhibitor, and 10 μM TBK1 inhibitor and was pre-incubated with recombinant ATM or recombinant TBK1 (TBK1 inhibitor) before setting up the kinase assay as described above.

DDR signaling [3] = test: DDR signaling immunoblot in HEK293 cells; type: cell-based, human; conditions: HEK293, 2 μM KU-55933 1 hr, cGAMP 16 hours
Nematostella vectensis = test: DDR in starlet sea anemones; type: in vivo; conditions: whole animals; cGAMP in digitonin solution 10 minutes; doxorubicin 2 μM; 16 hours
Text: Starlet sea anemones: Wild type, laboratory maintained, Self-sustaining Nematostella vectensis culture containing of 3-6 months old male and female animals (Putnam et al., 2007) was a kind gift from Timothy J. Jegla (Penn State University Department of Biology). They were maintained in 6-well plates containing water with Instant Ocean® Aquarium Sea Salt (50 gm/l) and fed brine shrimp. […] Permeabilization solution was removed and the animals returned to maintenance sea salt water. Doxorubicin was added to the maintenance sea salt water to a final concentration of 2 μM. 16 hours post treatment. N. vectensis were collected and washed once with cold PBS before the addition of 200 μl RIPA buffer. Samples were homogenized by sonication and centrifuged at 4° C. to remove debris. Soluble lysates were quantified for protein analysis by western blot.

Crassostrea virginica = test: DDR in oysters after adductor muscle injection; type: in vivo; conditions: hemocytes; cGAMP 25 μg/50 gm, doxorubicin 1 μg/50 gm oyster weight, 16 hours
Procedure: Oysters: Wild adult eastern oysters (Crassostrea virginica) of both male and female sexes ranging from 2 cm-7 cm in length (1 to 3 years in age) were collected from a natural oyster reef on Virgnia's Eastern Shore. Following collection, the diploid oysters were placed on ice and transported approximately 3 h to the University of Virginia main campus in Charlottesville, VA. There they were stored in an aerated aquarium containing water supplemented with Instant Ocean® Aquarium Sea Salt (50 gm/l). […] Treated oysters were kept at 4° C. in the dark for 16 hours after which they were shucked, had their hemolymph/tissues harvested for analysis by western blotting, and dead oyster and shell were disposed of.

cGAS [4] = test: HA-cGAS co-immunoprecipitation in HA-cGAS-reconstituted cGAS−/− MEFs; type: cell-based, mouse; conditions: doxorubicin 2 μM 6 hours
Procedure: Immunoprecipitation: Cells were treated as indicated and were lysed in RIPA buffer. Co-immunoprecipitation experiments were conducted using Dynabeads™ Protein G Immunoprecipitation Kits (Thermo Fisher, Catalogue #10007D) as per the manufacturer's protocol. 50 μl of Dynabead slurry was added to a microfuge tube and placed on a magnet to separate the solution. Beads were washed in 200 μl PBS with 0.1% Tween20 (3 times) before 5 μg antibody along with […] protein lysate diluted in PBS-tween20 to a final volume of 500 μl was added to the beads and incubated overnight at 4° C. with rotation. Beads were collected by magnetic separation and washed 3 times with wash buffer (10 mM Tris; adjust to pH 7.4, 1 mM EDTA; pH 8.0, 150 mM NaCl). Finally, bead-bound proteins were eluted by boiling in 1× Laemmli buffer and samples analyzed by western blotting.

γH2AX = γH2AX immunofluorescence (human RPE, THP1 cells); type: cell-based
Procedure: Immunofluorescence Staining: 16,500 adherent cells/cm^2 were plated on a gelatin coated 8-chamber slide (VWR, Catalogue #62407-296) and treated as indicated. Media was removed and cells were washed with 1×PBS with Ca^2+/Mg^2+ and fixed with 4% PFA for 20 minutes. Fixed cells were permeabilized with PBS+0.1% Triton-X and washed 3 times with PBS+0.1% Tween20. After treatment as indicated, non-adherent THP1 cells were collected by centrifugation, washed in cold PBS and fixed in PFA. Post-fixation, they were washed with PBS, spotted on gelatin coated “PTFE” Printed Slides (Electron Microscopy Sciences, Cat #63424-06), and air-dried. For γH2AX staining, permeabilized cells were blocked in Serum-free DAKO Protein Block (Agilent, Catalogue #X0909) for 1 hr at room temperature. Cells were incubated in primary antibody (γH2AX, 1:500; anti-HA, 1:100; Table 1) in DAKO antibody diluent at 4° C. overnight on a rocker platform. U2OS-STING cells undergoing Rad51 staining were first fixed in methanol for 20 minutes in −20° C., blocked for 1 hr with donkey block (2% normal donkey serum, 1% BSA, 0.1% Triton X 100, 0.05% Tween20, 0.05% Sodium Azide in PBS), then finally incubated in an anti-Rad51 antibody overnight at 4° C. (Bio-academia Cat #70-001, 1:6000 in 5% milk in TBST). For RPA70 staining, cells were fixed in 4% PFA at room temperature for 20 minutes and blocked in Cell Signaling blocking buffer (1×PBS/5% normal donkey serum/0.3% Triton™ X-100) for 1 hr in room temperature then incubated in an RPA70 antibody (Cell Signaling Cat #2267, 1:50 in blocking buffer) overnight at 4° C. Primary antibody was washed 3 times and incubated with secondary antibodies (Invitrogen, Alexa 555, 488) for 1 hr at room temperature. Coverslips were mounted on the cells with ProLong™ Gold Antifade mounting media with DAPI (Thermofisher, Catalogue #P36935). All images were obtained by confocal microscopy (Nikon, C2).

cGAMP = test: 2′3′-cGAMP ELISA in THP1 cells; type: cell-based, human; conditions: WT THP1, 1 μM Doxorubicin, 1 hr
cGAS, STING, and TBK1 = conditions: doxorubicin 2 μM 6 hours; cGAMP 16 hours
Procedure: Cell Fractionation: THP1 cells were treated as indicated, then nuclear and cytoplasmic fractions were isolated using NE-PER™ Nuclear and Cytoplasmic Extraction Reagents (Thermo Scientific, Catalogue #78833) following the manufacturer's protocol. 20 g of cytoplasmic and nuclear proteins were used for immunoblotting.

U2OS-STING cells = test: RAD51 and RPA70 foci in EdU+ U2OS-STING cells; type: cell-based, human; conditions: EdU-positive S-phase cells, Camptothecin 5 μM 16 hours
Procedure: Immunofluorescence Staining: 16,500 adherent cells/cm^2 were plated on a gelatin coated 8-chamber slide (VWR, Catalogue #62407-296) and treated as indicated. Media was removed and cells were washed with 1×PBS with Ca^2+/Mg^2+ and fixed with 4% PFA for 20 minutes. Fixed cells were permeabilized with PBS+0.1% Triton-X and washed 3 times with PBS+0.1% Tween20. After treatment as indicated, non-adherent THP1 cells were collected by centrifugation, washed in cold PBS and fixed in PFA. Post-fixation, they were washed with PBS, spotted on gelatin coated “PTFE” Printed Slides (Electron Microscopy Sciences, Cat #63424-06), and air-dried. For γH2AX staining, permeabilized cells were blocked in Serum-free DAKO Protein Block (Agilent, Catalogue #X0909) for 1 hr at room temperature. Cells were incubated in primary antibody (γH2AX, 1:500; anti-HA, 1:100; Table 1) in DAKO antibody diluent at 4° C. overnight on a rocker platform. […]
EdU incorporated cells were detected by confocal microscopy after Click-iT® EdU labeling following the manufacturer's protocol (Click-iT™ EdU Alexa Fluor™ 594 Imaging Kit, Thermo Fisher Cat #C10339).

cGAS [5] = conditions: Liu et al., 2018; cited from earlier work

CC[C@@]1(O)C(=O)OCc2c1cc1n(c2=O)Cc2cc3ccccc3nc2-1 [camptothecin]
DDR induction in cells lacking STING or TBK1 (DDR signaling [1]): abrogated | phosphorylation of H2AX, ATM, and CHK2 (DDR signaling [1]; cGAS−/− THP1, camptothecin 2 μM 4 hours): all suppressed | DDR signaling (γH2AX) (DDR signaling [2]): suppressed both in cGAS^−/− and cGAS^(GS198AA) primary MEFs

NC(=O)c1cccnc1 [nicotinamide]
cellular NAD^+ levels with nicotinamide supplementation (NAD^+): Boosting cellular NAD^+ levels | effect on cGAMP-driven inhibition of HDR (HEK293-TrLR cells; 2 mM and 4 mM NAM): abrogated cGAMP-driven inhibition of protein PARylation and HDR | effect on cGAMP-driven inhibition of cellular PARP enzymatic activity (PARP; THP1, 2 mM, 4 mM and 8 mM NAM, 18 hours): overcame cGAMP-driven inhibition of cellular PARP enzymatic activity | effect on cGAMP-driven inhibition of protein PARylation (PARylation): abrogated cGAMP-driven inhibition of protein PARylation and HDR

O=c1cc(-c2cccc3c2Sc2ccccc2S3)oc(N2CCOCC2)c1 [KU55933]
HDR under ATM inhibition alone (HEK293-TrLR cells; 25 μM KU-55933): impeded HDR in its own right | effect of ATM inhibitor on cGAMP-induced G1 arrest (cell cycle progression; WT THP1, 25 μM KU-55933, cGAMP 24 hours): suppressed the ability of cGAMP to induce γH2AX and pCHK2 (FIG. 9A) and to induce G1 arrest | ATM phosphorylation on Ser1981 (ATM): suppressed | effect on cGAMP-induced γH2AX and pCHK2 (DDR signaling [3]): suppressed the ability of cGAMP to induce γH2AX and pCHK2

COc1cccc2c1C(=O)c1c(O)c3c(c(O)c1C2=O)C[C@@](O)(C(=O)CO)C[C@@H]3O[C@H]1C[C@H](N)[C@H](O)[C@H](C)O1 [doxorubicin]
TBK1 phosphorylation (pTBK1) (Nematostella vectensis): TBK1 phosphorylation | γH2AX (Nematostella vectensis): elevated levels of γH2AX | DDR induction in cells lacking STING or TBK1 (DDR signaling [1]): abrogated | DDR signaling (γH2AX) (DDR signaling [2]): suppressed both in cGAS^−/− and cGAS^(GS198AA) primary MEFs | TBK1 phosphorylation (pTBK1) (Crassostrea virginica): TBK1 phosphorylation | γH2AX (Crassostrea virginica): elevated levels of γH2AX | cGAS association with ATM (cGAS [4]): detected no such interactions | cGAS complex with γH2AX (cGAS [4]): nuclear translocated cGAS was found in a complex with γH2AX | γH2AX foci in cGAS- and STING-deficient cells (γH2AX; doxorubicin-treated THP1 cells): significant reduction in the intensity of γH2AX foci | γH2AX staining pattern (γH2AX; human RPE cells, doxorubicin 2 hours, cGAMP or HT-DNA 6 hours): catalyzed the formation of γH2AX foci characteristic of DSB induction | cGAMP production (cGAMP): reacted by producing cGAMP | nuclear enrichment of TBK1, pTBK1, STING (cGAS, STING, and TBK1): promoted nuclear enrichment of TBK1 but not STING | nuclear enrichment of cGAS (cGAS, STING, and TBK1): nuclear enrichment of cGAS

Pam3CSK4
DDR activation (γH2AX) (DDR signaling [2]; WT primary MEF, Pam3CSK4 500 ng/ml 6 hours, HT-DNA 4 ug/6-well 6 hours, 5′ppp-dsRNA 0.5 μg/6 well 6 hours, cGAMP 16 hours): failed to stimulate the DDR

CNCc1ccc(-c2[nH]c3cc(F)cc4c3c2CCNC4=O)cc1 [rucaparib]
HDR (HEK293-TrLR cells; 1 μM PARP inhibitor (Rucaparib)): significantly reduced HDR in TrLR reporter cells | PARP enzymatic activity in cell lysates (PARP; THP1, cGAMP 6 hours, Rucaparib 10 μM, 6 hr): lower PARP enzymatic activity | abundance of S/G2-phase cells (cell cycle progression; THP1 10 μM Rucaparib (propidium iodide), U2OS-STING (EdU)): causes increased abundance of S/G2-phase cells | DNA damage-induced RAD51 and RPA foci formation (U2OS-STING cells): suppressed DNA damage-induced RAD51 and RPA foci formation in EdU-positive S-phase cells

O=C(c1cc(Cc2n[nH]c(=O)c3ccccc23)ccc1F)N1CCN(C(=O)C2CC2)CC1 [olaparib]
cGAS-PARP1 interactions and DNA damage-induced nuclear cGAS translocation (cGAS [5]): blocked

O=C(NCCCNc1nc(Nc2cccc(CN3CCOCC3)c2)ncc1C1CC1)C1CCC1 [MRT67307]
effect on cGAMP-induced phosphorylation of ATM (S1981), CHK2, and H2AX (DDR signaling [1]; THP1 pretreated with 2 μM TBK1 inhibitor, cGAMP 16 hours): suppressed cGAMP-induced phosphorylation of ATM (S1981), CHK2, and H2AX | ATM phosphorylation on Ser1981 (ATM): suppressed
